We go through 17 compounds from US8129371B2, “Thienopyrimidine and pyrazolopyrimidine compounds and their use as mTOR kinase and PI3 kinase inhibitors” (Wyeth LLC, priority 2007, dated 2012).

Assay [1] deals with T1, PI3K (Homo sapiens, UniProt P48736).
T1 construct: PI3 Kinase γ IC50; other: PI3 Kinase γ; other: PI3 Kinase γ isoform, fluorescence polarization
Nature of the assay: Fluorescence polarization assay for PI3K. Format: biochemical. To be noted: read-out: PI3 Kinase γ IC50. The method, boiled down:
(§1)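 PI3K was preincubated with compound (final DMSO 1%), and the reaction was started with PIP2/ATP substrate and run 30–60 min. It was stopped with a detector mix giving 10 nM red probe and 70 nM GST-GRP.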
(Polarisation of emitted light reports the rotation of a fluorescent probe.)

The target of assay [2] is T2, PI3K (Homo sapiens, UniProt P42336).
T2 construct: PI3 Kinase α IC50; other: PI3 Kinase α; other: PI3 Kinase α isoform, fluorescence polarization
Nature of the assay: Fluorescence polarization assay for PI3K. Format: biochemical. To be noted: read-out: PI3 Kinase α IC50. The method, boiled down:
as §1

Assay [3] concerns prostate line LNCap. In words: In vitro cell culture growth assay (MTS), LNCap. Format: cell-based. Conditions: Homo sapiens, LNCaP, 72 h, LNCap cells, three days after drug treatment. The method, boiled down: (§2)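 Growth is reported as percent of vehicle-treated control grown in the same plate, with viability determined by metabolic conversion of MTS dye and absorbance read at 490 nm. Compounds were applied one day after plating and left for three days.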

Assay [4] deals with breast line MDA468. Nature of the assay: In vitro cell culture growth assay (MTS), MDA468. Format: cell-based. Conditions: Homo sapiens, 72 h, MDA468 cells, three days after drug treatment. The method, boiled down:
as §2

Assay [5] deals with T3, Human mTOR (FLAG-TOR) (Homo sapiens, UniProt P42345).
T3 construct: FLAG
In words: Human mTOR kinase assay with purified enzyme, DELFIA format. Format: biochemical. The method, boiled down: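 Purified FLAG-mTOR in HEPES pH 7.4 buffer with 10 mM MnCl2 was preincubated with inhibitor and reacted 2 h at room temperature with His6-S6K substrate, then stopped with EDTA/EGTA. Phospho-T389 S6K detected by DELFIA with Eu-labelled antibody (40 ng/mL) after plate capture; inhibition computed from signal.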

The mark [6] stands for this setting: PI3 Kinase γ isoform, fluorescence polarization.
Setting [7] is: PI3 Kinase α isoform, fluorescence polarization.
The mark [8] stands for this setting: purified human mTOR enzyme, DELFIA format.

For orientation: IC50 means the concentration that inhibits the measured activity by half.

Molecules are shown by their SMILES. Read-outs that look alike come from different tables or passages of the source.

T1 sequence (P48736 whole entry, canonical isoform): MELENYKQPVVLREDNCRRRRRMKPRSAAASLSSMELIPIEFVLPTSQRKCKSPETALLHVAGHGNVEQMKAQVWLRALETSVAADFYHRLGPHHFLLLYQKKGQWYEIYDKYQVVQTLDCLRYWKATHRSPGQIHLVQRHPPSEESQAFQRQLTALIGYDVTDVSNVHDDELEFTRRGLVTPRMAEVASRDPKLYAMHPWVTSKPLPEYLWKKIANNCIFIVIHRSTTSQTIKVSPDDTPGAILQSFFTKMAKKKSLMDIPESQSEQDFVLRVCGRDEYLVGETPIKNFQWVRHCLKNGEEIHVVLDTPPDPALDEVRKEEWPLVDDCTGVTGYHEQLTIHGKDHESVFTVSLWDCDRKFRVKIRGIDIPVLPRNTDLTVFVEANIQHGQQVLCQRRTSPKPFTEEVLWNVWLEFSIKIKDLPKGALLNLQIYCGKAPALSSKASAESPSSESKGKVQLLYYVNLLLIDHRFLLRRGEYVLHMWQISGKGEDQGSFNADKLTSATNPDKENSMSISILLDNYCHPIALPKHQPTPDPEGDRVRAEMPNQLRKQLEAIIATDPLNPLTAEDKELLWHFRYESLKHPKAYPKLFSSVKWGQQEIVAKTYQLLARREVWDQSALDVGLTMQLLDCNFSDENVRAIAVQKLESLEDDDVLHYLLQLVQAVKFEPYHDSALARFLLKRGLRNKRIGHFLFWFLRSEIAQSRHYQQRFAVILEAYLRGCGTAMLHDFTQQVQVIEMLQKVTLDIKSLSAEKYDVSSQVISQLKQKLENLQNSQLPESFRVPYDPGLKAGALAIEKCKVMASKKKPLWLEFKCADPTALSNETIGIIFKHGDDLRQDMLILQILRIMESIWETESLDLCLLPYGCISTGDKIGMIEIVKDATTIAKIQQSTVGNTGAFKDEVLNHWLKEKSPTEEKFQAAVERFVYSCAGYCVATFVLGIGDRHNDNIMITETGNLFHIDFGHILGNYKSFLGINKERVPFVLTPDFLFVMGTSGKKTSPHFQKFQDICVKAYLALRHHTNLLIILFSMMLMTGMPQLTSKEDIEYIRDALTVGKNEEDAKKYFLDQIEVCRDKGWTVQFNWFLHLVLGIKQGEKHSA
T2 sequence (P42336 whole entry, canonical isoform): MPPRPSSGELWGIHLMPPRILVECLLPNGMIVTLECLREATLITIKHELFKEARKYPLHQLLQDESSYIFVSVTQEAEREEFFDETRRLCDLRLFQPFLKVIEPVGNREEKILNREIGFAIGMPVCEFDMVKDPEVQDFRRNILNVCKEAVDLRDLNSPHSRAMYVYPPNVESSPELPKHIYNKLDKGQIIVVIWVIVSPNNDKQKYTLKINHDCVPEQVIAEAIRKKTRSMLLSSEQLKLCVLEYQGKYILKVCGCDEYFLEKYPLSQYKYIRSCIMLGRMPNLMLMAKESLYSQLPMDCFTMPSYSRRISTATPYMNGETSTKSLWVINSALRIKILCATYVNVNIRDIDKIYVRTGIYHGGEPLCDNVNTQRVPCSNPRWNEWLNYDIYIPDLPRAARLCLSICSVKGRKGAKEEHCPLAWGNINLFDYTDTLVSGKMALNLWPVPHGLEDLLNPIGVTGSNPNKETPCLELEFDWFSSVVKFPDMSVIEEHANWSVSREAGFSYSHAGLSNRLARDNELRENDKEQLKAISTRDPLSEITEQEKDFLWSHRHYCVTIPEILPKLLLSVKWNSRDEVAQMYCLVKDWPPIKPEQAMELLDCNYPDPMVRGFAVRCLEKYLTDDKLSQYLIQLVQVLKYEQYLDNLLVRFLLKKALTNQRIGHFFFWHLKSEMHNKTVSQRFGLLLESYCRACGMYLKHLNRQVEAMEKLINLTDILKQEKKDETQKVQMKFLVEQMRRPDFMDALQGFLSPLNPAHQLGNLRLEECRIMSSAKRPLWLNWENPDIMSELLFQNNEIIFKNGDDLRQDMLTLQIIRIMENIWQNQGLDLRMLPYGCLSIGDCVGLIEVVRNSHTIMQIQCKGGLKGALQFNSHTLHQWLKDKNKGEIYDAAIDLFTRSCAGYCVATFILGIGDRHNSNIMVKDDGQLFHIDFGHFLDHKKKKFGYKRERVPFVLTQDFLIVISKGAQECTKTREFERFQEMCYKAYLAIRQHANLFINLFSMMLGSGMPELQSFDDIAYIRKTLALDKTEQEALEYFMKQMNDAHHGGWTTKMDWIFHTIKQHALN

As for `COC1CCC(n2ncc3c(N4CC5CCC(C4)O5)nc(-c4ccc(NC(=O)Nc5ccc(N6CCNCC6)cc5)cc4)nc32)CC1` (stereo not shown) [Example 305, 1-{4-[1-(4-methoxycyclohexyl)-4-(8-oxa-3-azabicyclo[3.2.1]oct-3-yl)-1H-pyrazolo[3,4-d]pyrimidin-6-yl]phenyl}-3-(4-piperazin-1-ylphenyl)urea], the IC50 in assay [1] (setting [6]) is 1520 nM; in assay [2] (setting [7]) it was 182 nM; in assay [3], less than 1 nM; in assay [4], 1 nM; in assay [5] (setting [8]) it was 0.25 nM.
`O=C(Nc1ccc(-c2nc(N3C[C@@H]4C[C@H]3CO4)c3cnn(CC(F)(F)F)c3n2)cc1)Nc1ccc(N2CCNCC2)cc1` [Example 393, 1-(4-{4-[(1S,4S)-2-oxa-5-azabicyclo[2.2.1]hept-5-yl]-1-(2,2,2-trifluoroethyl)-1H-pyrazolo[3,4-d]pyrimidin-6-yl}phenyl)-3-(4-piperazin-1-ylphenyl)urea]: the IC50 is 3090 nM in assay [1] (setting [6]); 330 nM in assay [2] (setting [7]); 1 nM in assay [3]; 14 nM in assay [4]; 1.75 nM in assay [5] (setting [8]).
Take `C=Cc1nn(CC)c2nc(-c3ccc(NC(=O)NC)cc3)nc(N3CC4CCC(C3)O4)c12` [Example 350, 1-{4-[1-ethyl-4-(8-oxa-3-azabicyclo[3.2.1]oct-3-yl)-3-vinyl-1H-pyrazolo[3,4-d]pyrimidin-6-yl]phenyl}-3-methylurea]: the IC50 in assay [1] (setting [6]) was determined as 6580 nM; in assay [2] (setting [7]) it was 565 nM; in assay [3] it was 130 nM; in assay [4] it was 480 nM; in assay [5] (setting [8]), 1.95 nM.
As for `CC(C)n1ncc2c(N3CC4CCC(C3)O4)nc(-c3ccc(NC(=O)NCCF)cc3)nc21` [Example 141, 1-(2-fluoroethyl)-3-{4-[1-isopropyl-4-(8-oxa-3-azabicyclo[3.2.1]oct-3-yl)-1H-pyrazolo[3,4-d]pyrimidin-6-yl]phenyl}urea], the IC50 in assay [1] (PI3 Kinase γ) turned out to be 6370 nM; in assay [2] (PI3 Kinase α), 648 nM; in assay [3] it was 1 nM; in assay [4] it was 40 nM; in assay [5] it was 0.155 nM.
Regarding `CCn1ncc2c(N3CC4CCC(C3)O4)nc(-c3ccc(NC(=O)Nc4ccc(OCCN5CCOCC5)nc4)cc3)nc21` [Example 283, 1-{4-[1-ethyl-4-(8-oxa-3-azabicyclo[3.2.1]oct-3-yl)-1H-pyrazolo[3,4-d]pyrimidin-6-yl]phenyl}-3-[6-(2-morpholin-4-ylethoxy)pyridin-3-yl]urea], the IC50 in assay [1] (PI3 Kinase γ) is 4750 nM; in assay [2] (PI3 Kinase α), 373 nM; in assay [3], less than 1 nM; in assay [4], 8 nM; in assay [5], 0.975 nM.
Turning to `CNC(=O)Nc1ccc(-c2nc(N3CC4CCC(C3)O4)c3cnn(CCN(C)C)c3n2)cc1` [Example 153, 1-(4-{1-[2-(dimethylamino)ethyl]-4-(8-oxa-3-azabicyclo[3.2.1]oct-3-yl)-1H-pyrazolo[3,4-d]pyrimidin-6-yl}phenyl)-3-methylurea], the IC50 in assay [1] (PI3 Kinase γ) is 4240 nM; in assay [2] (PI3 Kinase α) it was 966 nM; in assay [3], 400 nM; in assay [4] it was 2200 nM; in assay [5], 14.5 nM.
With `CN1CCN(c2ccc(NC(=O)Nc3ccc(-c4nc(N5CC6CCC(C5)O6)c5cnn(CCO)c5n4)cc3)cc2)CC1` [Example 203, 1-{4-[1-(2-hydroxyethyl)-4-(8-oxa-3-azabicyclo[3.2.1]oct-3-yl)-1H-pyrazolo[3,4-d]pyrimidin-6-yl]phenyl}-3-[4-(4-methylpiperazin-1-yl)phenyl]urea], the IC50 in assay [1] (PI3 Kinase γ) amounted to 1140 nM; in assay [2] (PI3 Kinase α), 104 nM; in assay [3], 1 nM; in assay [4], 2 nM; in assay [5], 1.07 nM.
`CC(C)n1ncc2c(N3CC4CCC(C3)O4)nc(-c3ccc(NC(=O)NCCO)cc3)nc21` [Example 143, 1-(2-hydroxyethyl)-3-{4-[1-isopropyl-4-(8-oxa-3-azabicyclo[3.2.1]oct-3-yl)-1H-pyrazolo[3,4-d]pyrimidin-6-yl]phenyl}urea]: the IC50 in assay [1] (PI3 Kinase γ) stood at 4580 nM; in assay [2] (PI3 Kinase α), 246 nM; in assay [3], 10 nM; in assay [4] it was 70 nM; in assay [5], 0.076 nM.
Turning to `O=C(Nc1ccc(-c2nc(N3C[C@@H]4C[C@H]3CO4)c3cnn(CC(F)(F)F)c3n2)cc1)Nc1ccc(N2CCOCC2)cc1` [Example 298, 1-(4-morpholin-4-ylphenyl)-3-(4-{4-[(1S,4S)-2-oxa-5-azabicyclo[2.2.1]hept-5-yl]-1-(2,2,2-trifluoroethyl)-1H-pyrazolo[3,4-d]pyrimidin-6-yl}phenyl)urea], the IC50 in assay [1] (setting [6]) is 10400 nM; in assay [2] (setting [7]), 1220 nM; in assay [3], less than 1 nM; in assay [4], 1 nM; in assay [5] (setting [8]), 1.25 nM.
Consider `N#CCCn1ncc2c(N3CC4CCC(C3)O4)nc(-c3ccc(NC(=O)Nc4ccncc4)cc3)nc21` [Example 217, 1-{4-[1-(2-cyanoethyl)-4-(8-oxa-3-azabicyclo[3.2.1]oct-3-yl)-1H-pyrazolo[3,4-d]pyrimidin-6-yl]phenyl}-3-pyridin-4-ylurea], for which the IC50 in assay [1] (PI3 Kinase γ) is 348 nM; in assay [2] (PI3 Kinase α) it was 112 nM; in assay [3] it was less than 1 nM; in assay [4], 1 nM; in assay [5], 0.17 nM.
For `CC(C)(C)n1ncc2c(N3CC4CCC(C3)O4)nc(-c3ccc(NC(=O)Nc4ccncc4)cc3)nc21` [Example 101], the IC50 in assay [1] (PI3 Kinase γ) was 727 nM; in assay [2] (PI3 Kinase α), 178 nM; in assay [3] it was 19 nM; in assay [4], 110 nM; in assay [5], 0.53 nM.
Consider `CCn1ncc2c(N3CC4CCC(C3)O4)nc(-c3ccc(NC(=O)NCCCNC)cc3)nc21` [Example 49, 1-{4-[1-ethyl-4-(8-oxa-3-azabicyclo[3.2.1]oct-3-yl)-1H-pyrazolo[3,4-d]pyrimidin-6-yl]phenyl}-3-[3-(methylamino)propyl]urea], for which the IC50 is greater than 10000 nM in assay [1] (PI3 Kinase γ); 968 nM in assay [2] (PI3 Kinase α); 1800 nM in assay [3]; 3000 nM in assay [4]; 14 nM in assay [5].
For the compound `CN1CCN(c2ccc(NC(=O)Nc3ccc(-c4nc(N5CC6CCC(C5)O6)c5cnn([C@H]6CC[C@@H](O)CC6)c5n4)cc3)cc2)CC1` (relative stereo) [Example 405, 1-{4-[1-(cis-4-hydroxycyclohexyl)-4-(8-oxa-3-azabicyclo[3.2.1]oct-3-yl)-1H-pyrazolo[3,4-d]pyrimidin-6-yl]phenyl}-3-[4-(4-methylpiperazin-1-yl)phenyl]urea], the IC50 in assay [1] (setting [6]) was 1360 nM; in assay [2] (setting [7]) it was 107 nM; in assay [3], less than 1 nM; in assay [4], 20 nM; in assay [5] (setting [8]), 0.33 nM.
In the case of `COC1CCC(n2ncc3c(N4CC5CCC(C4)O5)nc(-c4ccc(NC(=O)Nc5ccncc5)cc4)nc32)CC1` (stereo not shown) [Example 303, 1-{4-[1-(4-methoxycyclohexyl)-4-(8-oxa-3-azabicyclo[3.2.1]oct-3-yl)-1H-pyrazolo[3,4-d]pyrimidin-6-yl]phenyl}-3-pyridin-4-ylurea], the IC50 was 845 nM in assay [1] (setting [6]); 164 nM in assay [2] (setting [7]); less than 1 nM in assay [3]; 1 nM in assay [4]; 0.145 nM in assay [5] (setting [8]).
For the compound `O=C(Nc1ccc(-c2nc(N3C[C@H]4C[C@@H]3CO4)c3cnn(CC(F)(F)F)c3n2)cc1)OCCO` [Example 343, 2-hydroxyethyl (4-{4-[(1R,4R)-2-oxa-5-azabicyclo[2.2.1]hept-5-yl]-1-(2,2,2-trifluoroethyl)-1H-pyrazolo[3,4-d]pyrimidin-6-yl}phenyl)carbamate], the IC50 in assay [1] (setting [6]) is greater than 10000 nM; in assay [2] (setting [7]) it was 5170 nM; in assay [3], 1200 nM; in assay [4], 1500 nM; in assay [5] (setting [8]), 81 nM.
For `O=C(Nc1ccc(-c2nc(N3CC4CCC(C3)O4)c3cnn(C4CCN(Cc5cccnc5)CC4)c3n2)cc1)OCCO` [Example 210, 2-hydroxyethyl (4-{4-(8-oxa-3-azabicyclo[3.2.1]oct-3-yl)-1-[1-(pyridin-3-ylmethyl)piperidin-4-yl]-1H-pyrazolo[3,4-d]pyrimidin-6-yl}phenyl)carbamate], the IC50 was greater than 10000 nM in assay [1] (PI3 Kinase γ); 1750 nM in assay [2] (PI3 Kinase α); 4 nM in assay [3]; 110 nM in assay [4]; 0.93 nM in assay [5].
For the compound `COC(=O)N1CCC(n2ncc3c(N4CC5CCC(C4)O5)nc(-c4ccc(NC(=O)Nc5ccc(N6CCN(C)CC6)nc5)cc4)nc32)CC1` [Example 167, methyl 4-{6-[4-({[6-(4-methylpiperazin-1-yl)pyridin-3-yl]carbamoyl}amino)phenyl]-4-(8-oxa-3-azabicyclo[3.2.1]oct-3-yl)-1H-pyrazolo[3,4-d]pyrimidin-1-yl}piperidine-1-carboxylate], the IC50 in assay [1] (PI3 Kinase γ) was 1220 nM; in assay [2] (PI3 Kinase α), 234 nM; in assay [3], less than 1 nM; in assay [4], 4 nM; in assay [5] it was 0.425 nM.
